Data from patent US8802728B2, “Analgesic compounds, methods, and formulations” (Eli Lilly and Company, priority 2011, dated 2014).
Counter-ions that a name gives are not always drawn. Like-named read-outs stand apart in the source and are kept apart here.

Key:
rat = test: Rat tail flick assay (tail flick latency in response to heat); type: in vivo; conditions: read-out: % MPE (Maximum Possible Effect), tail flick
From the text: The Tail Flick Assay, based upon the methods of D'Amour & Smith (J. Pharmacol. Exp. Therap., 72: 74-79, 1941), is used to measure loss of pain sensation in the rat tail, allowing the experimenter to screen drugs for analgesic effect. Since then, the method has been used in a number of publications. For example, it was used to evaluate the analgesic effect of O-alkyl derivatives of tramadol by Liming Shao and Michael Hewitt etc. (Boiorganic & Medicinal Chemistry Letters, 18:1674-1680, 2008).
A Tail Flick Unit is used to measure tail flick latency in response to heat. The unit consists of an infrared (I.R.) source (50 W bulb) with adjustable intensity that is focused through a flush mounted window on the upper panel of the unit and onto the rat tail. Once I.R. source is focused on the rat tail and turned on, a timer starts. When the thermal threshold for pain is reached and the rat flicks its tail, the I.R source automatically shuts off and the timer stop, displaying the latency time.
On the day of experiment, the animals are tested to determine baseline latency. Each rat is given one test to determine latency to tail flick with a cut off 10 seconds. Baselines are recorded and those animals with a baseline latency of 2-5 seconds are used in the experiment. Animals are divided into several groups according to the baseline latency. The Tail-flick latencies are measured at different timepoints for up to 180 minutes after administration of vehicle or test articles. If treatment group continues to display pain control after 180 minutes, additional measurements are taken every 60 minutes until pain control is no longer observed.
I.R. Source is set at 40 units (determined to elicit tail flick response in desired 2-5 seconds in naïve animals).
Test articles or vehicle are administered by intravenous (IV) injection through the tail vein or by oral gavage at time 0. Animals are gently restrained and held on top of a tail flick unit. The tail is then wiped clean with a cotton square and placed over the I.R. source so that the beam is focused at approximately midway the length of the tail. After the rat is in position, the I.R. source is turned on. When the thermal threshold for pain is reached, the rat flicked its tail and the I.R. source automatically shuts off. Latency time (in seconds) is then recorded.
Data are recorded and graphed as % MPE (Maximum Possible Effect). % MPE is calculated using the following formula: % MPE=[(Test latency−Baseline latency)/(Cut off latency(10 sec.'s)−Baseline latency)]*100
Compounds were administered by the IV route in 20% 2-hydroxypropyl-beta-cyclodextrin (20% HP-β-CD). The dose levels of test article were 2.5, 5, or 20 mg/kg. Examples 2, 3, 13, 40, 77, 78, 114, and Tramadol provided at least 50% MPE at 20 mg/kg. Compounds 5, 8, 17, 105, 107, 148, 158, and 159 provided at least 50% MPE at 5 mg/kg. Compounds 82, 84, and 116 provided at least 50% MPE at 2.5 mg/kg.
Compounds were administered by oral gavage in 0.5% methylcellulose at 20 or 30 mg/kg. Examples 2, 3, 13, 115, and Tramadol provided at least 50% MPE at 30 mg/kg. Compounds 5, 39, 65, 106, and 115 provided at least 50% MPE at 20 mg/kg.

Unspecified bioassay(s) = conditions: comparison of the two enantiomers of Example 181
[1] = oral gavage in 0.5% methylcellulose

CN(C)C[C@H]1[C@@H]2CC[C@@H](C2)C[C@]1(O)c1cc(O)cc(F)c1 (stereo in doubt) [Example 40, 2-Dimethylaminomethyl-3-(3-fluoro-5-hydroxy-phenyl)-bicyclo[3.2.1]octan-3-ol]
inhibition in vivo at 20 mg/kg (rat; IV in 20% HP-β-CD): ≥ 50%

CN(C)C[C@H]1[C@@H]2CC[C@@H](C2)C[C@H]1c1cc(O)cc(F)c1 (stereo in doubt) [Example 116, 3-(2-dimethylaminomethyl-bicyclo[3.2.1]oct-3-yl)-5-fluoro-phenol]
inhibition in vivo at 2.5 mg/kg (rat; IV in 20% HP-β-CD): ≥ 50%

CN(C)C[C@@H]1C(c2cc(O)cc(F)c2)=C[C@H]2CC[C@@H]1C2 (stereo in doubt) [Example 82, 3-(4-Dimethylaminomethyl-bicyclo[3.2.1]oct-2-en-3-yl)-5-fluoro-phenol]
inhibition in vivo at 2.5 mg/kg (rat; IV in 20% HP-β-CD): ≥ 50%

CN(C)C[C@H]1C2CC[C@@H](C2)C[C@]1(O)c1cc(O)ccc1F (stereo in doubt) [Example 39, 2-dimethylaminomethyl-3-(2-fluoro-5-hydroxy-phenyl)-bicyclo[3.2.1]octan-3-ol]
inhibition in vivo at 20 mg/kg (rat; [1]): ≥ 50%

CN(C)C[C@H]1[C@H]2CC[C@H](C2)C[C@]1(O)c1cccc(O)c1 [(+)-Enantioisomers, (+)-(1S,2R,3R,5R)-2-((dimethylamino)methyl)-3-(3-hydroxyphenyl)bicyclo[3.2.1]octan-3-ol]
biological activity in bioassay(s) (Unspecified bioassay(s)): better biological activity than (−)-enantioisomer

COc1cc(C)cc([C@@]2(O)C[C@H]3CC[C@H](C3)[C@@H]2CN(C)C)c1 (stereo in doubt) [Example 8, 2-Dimethylaminomethyl-3-(3-methoxy-5-methyl-phenyl)-bicyclo[3.2.1]octan-3-ol]
inhibition in vivo at 5 mg/kg (rat; IV in 20% HP-β-CD): ≥ 50%

CN(C)C[C@@H]1C(c2cc(F)cc(OC(=O)C(C)(C)C)c2)=C[C@H]2CC[C@@H]1C2 [Example 107, 2,2-Dimethyl-propionic-acid 3-(4-dimethyl-aminomethyl-bicyclo[3.2.1]oct-2-en-3-yl)-5-fluoro-phenyl ester]
inhibition in vivo at 5 mg/kg (rat; IV in 20% HP-β-CD): ≥ 50%

COc1cccc([C@@]2(O)C[C@H]3CCC(C3)[C@@H]2CN(C)C)c1 (stereo in doubt) [Example 2, 2-dimethylaminomethyl-3-(3-methoxy-phenyl)-bicyclo[3.2.1]octan-3-ol]
inhibition in vivo at 20 mg/kg (rat; IV in 20% HP-β-CD): ≥ 50% | inhibition in vivo at 30 mg/kg (rat; [1]): ≥ 50%

COc1ccc(F)c([C@@]2(O)C[C@H]3CC[C@H](C3)[C@@H]2CN(C)C)c1 (stereo in doubt) [Example 5, 2-Dimethylaminomethyl-3-(2-fluoro-5-methoxy-phenyl)-bicyclo[3.2.1]octan-3-ol]
inhibition in vivo at 20 mg/kg (rat; [1]): ≥ 50%

CN(C)C[C@H]1CC[C@@H]2C[C@@H]2[C@]1(O)c1cc(O)ccc1F (stereo in doubt) [Example 158, 3-Dimethylaminomethyl-2-(2-fluoro-5-hydroxy-phenyl)-bicyclo[4.1.0] heptan-2-ol]
inhibition in vivo at 5 mg/kg (rat; IV in 20% HP-β-CD): ≥ 50%

Cc1cc(O)cc([C@]2(O)[C@@H](CN(C)C)CC[C@@H]3C[C@@H]32)c1 (stereo in doubt) [Example 159, 3-Dimethylaminomethyl-2-(3-hydroxy-5-methyl-phenyl)-bicyclo[4.1.0] heptan-2-ol]
inhibition in vivo at 5 mg/kg (rat; IV in 20% HP-β-CD): ≥ 50%

CN(C)C[C@@H]1C(c2cccc(O)c2)=C[C@@H]2CC[C@H]1C2 (stereo in doubt) [Example 77, 3-(4-dimethylaminomethyl-bicyclo[3.2.1]oct-2-en-3-yl)-phenol]
inhibition in vivo at 20 mg/kg (rat; IV in 20% HP-β-CD): ≥ 50%

CN(C)C[C@H]1[C@H]2CC[C@H](C2)C[C@H]1c1cccc(O)c1 (stereo in doubt) [Example 114, 3-(2-dimethylaminomethyl-bicyclo[3.2.1]oct-3-yl)-phenol]
inhibition in vivo at 20 mg/kg (rat; IV in 20% HP-β-CD): ≥ 50%

COc1cccc([C@@H]2C[C@H]3CC[C@H](C3)[C@@H]2CN(C)C)c1 (stereo in doubt) [Example 115, [3-(3-methoxy-phenyl)-bicyclo[3.2.1]oct-2-ylmethyl]-dimethyl-amine]
inhibition in vivo at 20 mg/kg (rat; [1]): ≥ 50% | inhibition in vivo at 30 mg/kg (rat; [1]): ≥ 50%

CN(C)C[C@H]1[C@@H]2CC[C@@H](C2)C[C@]1(O)c1cccc(O)c1 (stereo in doubt) [Example 13, 2-Dimethylaminomethyl-3-(3-hydroxy-phenyl)-bicyclo[3.2.1]octan-3-ol]
inhibition in vivo at 20 mg/kg (rat; IV in 20% HP-β-CD): ≥ 50% | inhibition in vivo at 30 mg/kg (rat; [1]): ≥ 50%

COc1cccc([C@]2(O)[C@@H](CN(C)C)CC[C@@H]3C[C@@H]32)c1 (stereo in doubt) [Example 148, 3-Dimethylaminomethyl-2-(3-methoxy-phenyl)-bicyclo[4.1.0] heptan-2-ol]
inhibition in vivo at 5 mg/kg (rat; IV in 20% HP-β-CD): ≥ 50%

COc1cc(F)cc([C@@]2(O)C[C@H]3CC[C@H](C3)[C@@H]2CN(C)C)c1 (stereo in doubt) [Example 3, 2-Dimethylaminomethyl-3-(3-fluoro-5-methoxy-phenyl)-bicyclo[3.2.1]octan-3-ol]
inhibition in vivo at 20 mg/kg (rat; IV in 20% HP-β-CD): ≥ 50% | inhibition in vivo at 30 mg/kg (rat; [1]): ≥ 50%

COc1cccc(C2=C[C@H]3CC[C@H](C3)[C@@H]2CN(C)C)c1 (stereo in doubt) [Example 78, [3-(3-Methoxy-phenyl)-bicyclo[3.2.1]oct-3-en-2-ylmethyl]-dimethyl-amine]
inhibition in vivo at 20 mg/kg (rat; IV in 20% HP-β-CD): ≥ 50%

CN(C)C[C@H]1C2CC[C@@H](C2)C[C@]1(O)c1cc(OC(=O)C(C)(C)C)ccc1F [Example 65, 2,2-dimethyl-propionic acid 3-(2-dimethylaminomethyl-3-hydroxy-bicycle[3.2.1]oct-3-yl)-4-fluoro-phenyl ester]
inhibition in vivo at 20 mg/kg (rat; [1]): ≥ 50%

CN(C)C[C@@H]1C(c2cc(O)ccc2F)=C[C@H]2CC[C@@H]1C2 (stereo in doubt) [Example 84, 3-(4-Dimethylaminomethyl-bicyclo[3.2.1]oct-2-en-3-yl)-4-fluoro-phenol]
inhibition in vivo at 2.5 mg/kg (rat; IV in 20% HP-β-CD): ≥ 50%

COc1cccc(C2(O)CCCCC2CN(C)C)c1 (centres unmarked) [Tramadol, reference compound]
inhibition in vivo at 20 mg/kg (rat; IV in 20% HP-β-CD): ≥ 50% | inhibition in vivo at 30 mg/kg (rat; [1]): ≥ 50%

COc1ccc(F)c([C@@]2(O)C[C@H]3CC[C@H](C3)[C@@H]2CN(C)C)c1 [Example 17, 2-Dimethylamino-methyl-3-(2-fluoro-5-methoxy-phenyl)-bicyclo[3.2.1]octan-3-ol hydrochloride]
inhibition in vivo at 5 mg/kg (rat; IV in 20% HP-β-CD): ≥ 50%

CN(C)C[C@@H]1C(c2cccc(OC(=O)C(C)(C)C)c2)=C[C@@H]2CC[C@H]1C2 (stereo in doubt) [Example 105, 2,2-dimethyl-propionic acid 3-(4-dimethylaminomethyl-bicyclo[3.2.1]oct-2-en-3-yl)-phenyl ester]
inhibition in vivo at 5 mg/kg (rat; IV in 20% HP-β-CD): ≥ 50%

CN(C)C[C@@H]1C(c2cccc(OC(=O)c3ccccc3)c2)=C[C@H]2CC[C@@H]1C2 (stereo in doubt) [Example 106, Benzoic acid 3-(4-dimethylaminomethyl-bicyclo[3.2.1]oct-2-en-3-yl)-phenyl ester]
inhibition in vivo at 20 mg/kg (rat; [1]): ≥ 50%
